Data reported in ChEMBL document CHEMBL1201862, “PubChem BioAssay data set” (2004).
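Interpolation was linear, between the two tested concentrations surrounding the appropriate level; five concentrations were tested over 48 hours in 96-well plates. At the GI50, growth is halved.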 Active and inactive are the calls of the source. Rule as the data show it: active = GI50 up to about 1.1 µM and inactive = higher.

Assays:
Assay in all cases: NCI tumour cell line growth inhibition, 48 h
DLD-1 = tested on: DLD-1
UACC-62 = tested on: UACC-62
IGROV-1 = tested on: IGROV-1
KM-20L2 = tested on: KM-20L2
HCC 2998 = tested on: HCC 2998
NCI-H460 = tested on: NCI-H460
DMS-114 = tested on: DMS-114
HOP-92 = tested on: HOP-92
CCRF-CEM = tested on: CCRF-CEM
SN12C = tested on: SN12C
UO-31 = tested on: UO-31
RPMI-8226 = tested on: RPMI-8226
MOLT-4 = tested on: MOLT-4
Malme-3M = tested on: Malme-3M
U-251 = tested on: U-251
RXF 631 = tested on: RXF 631
SNB-75 = tested on: SNB-75
OVCAR-4 = tested on: OVCAR-4
NCI-H522 = tested on: NCI-H522
TK-10 = tested on: TK-10
HT-29 = tested on: HT-29
SR = tested on: SR
A498 = tested on: A498
SW-620 = tested on: SW-620
M14 = tested on: M14
SK-MEL-5 = tested on: SK-MEL-5
LOX IMVI = tested on: LOX IMVI
M19-MEL = tested on: M19-MEL
A549 = tested on: A549
SNB-78 = tested on: SNB-78
SF-268 = tested on: SF-268
HOP-18 = tested on: HOP-18
786-0 = tested on: 786-0
OVCAR-8 = tested on: OVCAR-8
SK-OV-3 = tested on: SK-OV-3
HOP-62 = tested on: HOP-62
SK-MEL-28 = tested on: SK-MEL-28
LXFL 529 = tested on: LXFL 529
OVCAR-3 = tested on: OVCAR-3
DMS-273 = tested on: DMS-273
HCT-15 = tested on: HCT-15
CAKI-1 = tested on: CAKI-1
KM12 = tested on: KM12
SF-295 = tested on: SF-295
COLO 205 = tested on: COLO 205
ACHN = tested on: ACHN
HL-60 = tested on: HL-60
UACC-257 = tested on: UACC-257
SNB-19 = tested on: SNB-19
EKVX = tested on: EKVX
RXF 393 = tested on: RXF 393
HCT-116 = tested on: HCT-116
NCI-H226 = tested on: NCI-H226
SF-539 = tested on: SF-539
OVCAR-5 = tested on: OVCAR-5
K562 = tested on: K562
NCI-H23 = tested on: NCI-H23

CC12CCC3(OCCO3)C(OC(=O)c3ccccc3)=C1CCC21OCCO1 (centres undefined)
GI50 (DLD-1): > 100 µM (inactive)
GI50 (UACC-62): > 100 µM (inactive)
GI50 (IGROV-1): > 100 µM (inactive)
GI50 (KM-20L2): > 100 µM (inactive)
GI50 (HCC 2998): > 100 µM (inactive)
GI50 (NCI-H460): > 100 µM (inactive)
GI50 (DMS-114): > 100 µM (inactive)
GI50 (HOP-92): > 100 µM (inactive)
GI50 (CCRF-CEM): > 100 µM (inactive)
GI50 (SN12C): > 100 µM (inactive)
GI50 (UO-31): > 100 µM (inactive)
GI50 (RPMI-8226): 71.3 µM (inactive)
GI50 (MOLT-4): > 100 µM (inactive)
GI50 (Malme-3M): > 100 µM (inactive)
GI50 (U-251): > 100 µM (inactive)
GI50 (RXF 631): > 100 µM (inactive)
GI50 (SNB-75): > 100 µM (inactive)
GI50 (OVCAR-4): > 100 µM (inactive)
GI50 (NCI-H522): > 100 µM (inactive)
GI50 (TK-10): > 100 µM (inactive)
GI50 (HT-29): > 100 µM (inactive)
GI50 (SR): > 100 µM (inactive)
GI50 (A498): > 100 µM (inactive)
GI50 (SW-620): > 100 µM (inactive)
GI50 (M14): > 100 µM (inactive)
GI50 (SK-MEL-5): > 100 µM (inactive)
GI50 (LOX IMVI): > 100 µM (inactive)
GI50 (M19-MEL): > 100 µM (inactive)
GI50 (A549): > 100 µM (inactive)
GI50 (SNB-78): > 100 µM (inactive)
GI50 (SF-268): > 100 µM (inactive)
GI50 (HOP-18): > 100 µM (inactive)
GI50 (786-0): > 100 µM (inactive)
GI50 (OVCAR-8): > 100 µM (inactive)
GI50 (SK-OV-3): > 100 µM (inactive)
GI50 (HOP-62): > 100 µM (inactive)
GI50 (SK-MEL-28): > 100 µM (inactive)
GI50 (LXFL 529): > 100 µM (inactive)
GI50 (OVCAR-3): > 100 µM (inactive)
GI50 (DMS-273): > 100 µM (inactive)
GI50 (HCT-15): > 100 µM
GI50 (CAKI-1): > 100 µM (inactive)
GI50 (KM12): > 100 µM (inactive)
GI50 (SF-295): > 100 µM (inactive)
GI50 (COLO 205): 63.1 µM (inactive)
GI50 (ACHN): > 100 µM (inactive)
GI50 (HL-60): > 100 µM (inactive)
GI50 (UACC-257): > 100 µM (inactive)
GI50 (SNB-19): > 100 µM (inactive)
GI50 (EKVX): > 100 µM (inactive)
GI50 (RXF 393): > 100 µM (inactive)
GI50 (HCT-116): > 100 µM (inactive)
GI50 (NCI-H226): 4.7 µM (inactive)
GI50 (SF-539): > 100 µM (inactive)
GI50 (OVCAR-5): > 100 µM (inactive)

CCCCCCN(N)C(=O)CC#N
GI50 (DLD-1): 87.3 µM (inactive)
GI50 (UACC-62): 60.4 µM (inactive)
GI50 (IGROV-1): > 100 µM (inactive)
GI50 (KM-20L2): > 100 µM (inactive)
GI50 (HCC 2998): > 100 µM (inactive)
GI50 (NCI-H460): > 100 µM (inactive)
GI50 (DMS-114): 32.2 µM (inactive)
GI50 (HOP-92): 53 µM (inactive)
GI50 (CCRF-CEM): > 100 µM (inactive)
GI50 (SN12C): > 100 µM (inactive)
GI50 (UO-31): > 100 µM (inactive)
GI50 (RPMI-8226): 19.8 µM (inactive)
GI50 (MOLT-4): 35.5 µM (inactive)
GI50 (Malme-3M): > 100 µM (inactive)
GI50 (U-251): 74.5 µM (inactive)
GI50 (RXF 631): 98.9 µM (inactive)
GI50 (SNB-75): > 100 µM (inactive)
GI50 (OVCAR-4): 48.4 µM (inactive)
GI50 (NCI-H522): 23.9 µM (inactive)
GI50 (TK-10): > 100 µM (inactive)
GI50 (HT-29): > 100 µM (inactive)
GI50 (A498): > 100 µM (inactive)
GI50 (SW-620): > 100 µM (inactive)
GI50 (M14): > 100 µM (inactive)
GI50 (SK-MEL-5): 70.6 µM (inactive)
GI50 (LOX IMVI): 72.1 µM (inactive)
GI50 (M19-MEL): > 100 µM (inactive)
GI50 (A549): > 100 µM (inactive)
GI50 (SNB-78): > 100 µM (inactive)
GI50 (SF-268): > 100 µM (inactive)
GI50 (HOP-18): > 100 µM (inactive)
GI50 (786-0): > 100 µM (inactive)
GI50 (OVCAR-8): > 100 µM (inactive)
GI50 (SK-OV-3): > 100 µM (inactive)
GI50 (HOP-62): > 100 µM (inactive)
GI50 (SK-MEL-28): > 100 µM (inactive)
GI50 (K562): 39.6 µM (inactive)
GI50 (LXFL 529): > 100 µM (inactive)
GI50 (NCI-H23): 65.6 µM (inactive)
GI50 (OVCAR-3): 79.1 µM (inactive)
GI50 (DMS-273): > 100 µM (inactive)
GI50 (HCT-15): > 100 µM
GI50 (CAKI-1): > 100 µM (inactive)
GI50 (KM12): 23 µM (inactive)
GI50 (COLO 205): 96.2 µM (inactive)
GI50 (ACHN): 95.5 µM (inactive)
GI50 (UACC-257): > 100 µM (inactive)
GI50 (SNB-19): > 10 µM (inactive)
GI50 (EKVX): > 100 µM (inactive)
GI50 (RXF 393): 16.9 µM (inactive)
GI50 (HCT-116): 47.6 µM (inactive)
GI50 (NCI-H226): > 100 µM (inactive)
GI50 (SF-539): > 100 µM (inactive)
GI50 (OVCAR-5): 52.2 µM (inactive)
